From the NIST ThermoML archive (doi:10.1016/j.fluid.2010.10.018)

Details: 101.33 kPa, Liquid

CCCCCC[n+]1ccn(C)c1.O=S(=O)([N-]S(=O)(=O)C(F)(F)F)C(F)(F)F
viscosity [mPa·s]
Details | Concentric cylinders viscometry | Falling or rolling sphere viscometry
278 K | 212.3 | –
283 K | 155.94 | –
288 K | 117.29 | –
293 K | 90.13 | 87.84
298 K | 70.61 | –
303 K | 56.3 | –
308 K | 45.61 | –
313 K | 37.47 | 37.08
318 K | 31.19 | –
323 K | 26.25 | –
328 K | 22.35 | –
333 K | 19.2 | 19.29
338 K | 16.65 | –
343 K | 14.55 | –
348 K | 12.81 | –
353 K | 11.35 | 11.48
358 K | 10.13 | –
373 K | – | 7.46
393 K | – | 5.28

CCCC[n+]1ccn(C)c1.O=S(=O)([N-]S(=O)(=O)C(F)(F)F)C(F)(F)F
viscosity [mPa·s]
Details | Concentric cylinders viscometry | Falling or rolling sphere viscometry
278 K | 137.62 | –
283 K | 104.14 | –
288 K | 80.16 | –
293 K | 62.99 | 63.05
298 K | 50.62 | –
303 K | 41.12 | –
308 K | 33.89 | –
313 K | 28.28 | 28.63
318 K | 23.92 | –
323 K | 20.45 | –
328 K | 17.66 | –
333 K | 15.38 | 16
338 K | 13.5 | –
343 K | 11.93 | –
348 K | 10.61 | –
353 K | 9.501 | 9.911
358 K | 8.553 | –
373 K | – | 6.548
393 K | – | 4.785

CCCCCCCCC[n+]1ccn(C)c1.O=S(=O)([N-]S(=O)(=O)C(F)(F)F)C(F)(F)F
Capillary tube (Ostwald / Ubbelohde) method
Details | viscosity [mPa·s]
278 K | 348.2
283 K | 249.7
288 K | 183.88
293 K | 138.55
298 K | 106.41
303 K | 83.35
308 K | 66.2
313 K | 53.43
318 K | 43.76
323 K | 36.28
328 K | 30.43
333 K | 25.77
338 K | 22.12
343 K | 19.09
348 K | 16.61
353 K | 14.53
358 K | 12.82
363 K | 11.4

CCCCCCCn1cc[n+](C)c1.O=S(=O)([N-]S(=O)(=O)C(F)(F)F)C(F)(F)F
Concentric cylinders viscometry
Details | viscosity [mPa·s]
278 K | 235
283 K | 182.82
288 K | 136.42
293 K | 104.17
298 K | 81.11
303 K | 64.28
308 K | 51.75
313 K | 42.28
318 K | 34.99
323 K | 29.3
328 K | 24.81
333 K | 21.2
338 K | 18.3
343 K | 15.92
348 K | 13.95
353 K | 12.31
358 K | 10.93
363 K | 9.753

CCCn1cc[n+](C)c1.O=S(=O)([N-]S(=O)(=O)C(F)(F)F)C(F)(F)F
viscosity [mPa·s]
Details | Concentric cylinders viscometry | Falling or rolling sphere viscometry
278 K | 122.17 | –
283 K | 92.6 | –
288 K | 71.78 | –
293 K | 56.78 | 56.4
298 K | 45.75 | –
303 K | 37.43 | –
308 K | 31.07 | –
313 K | 26.13 | 26.17
318 K | 22.23 | –
323 K | 19.11 | –
328 K | 16.58 | –
333 K | 14.5 | 14.82
338 K | 12.79 | –
343 K | 11.35 | –
348 K | 10.14 | –
353 K | 9.118 | 9.251
358 K | 8.24 | –
373 K | – | 6.32

CCCCCn1cc[n+](C)c1.O=S(=O)([N-]S(=O)(=O)C(F)(F)F)C(F)(F)F
viscosity [mPa·s]
Details | Concentric cylinders viscometry | Falling or rolling sphere viscometry
278 K | 164.73 | –
283 K | 123.09 | 133.33
288 K | 93.65 | –
293 K | 72.76 | 78.44
298 K | 57.81 | –
303 K | 46.38 | –
308 K | 37.92 | –
313 K | 31.43 | 33.94
318 K | 26.38 | –
323 K | 22.4 | –
328 K | 19.2 | –
333 K | 16.6 | 18.52
338 K | 14.48 | –
343 K | 12.73 | –
348 K | 11.27 | –
353 K | 10.04 | 10.89
358 K | 8.996 | –
373 K | – | 7.19
393 K | – | 5.15

CCn1cc[n+](C)c1.O=S(=O)([N-]S(=O)(=O)C(F)(F)F)C(F)(F)F
viscosity [mPa·s]
Details | Concentric cylinders viscometry | Falling or rolling sphere viscometry
278 K | 76.05 | –
283 K | 60.15 | 59.8
288 K | 48.47 | –
293 K | 39.71 | 39.54
298 K | 33 | –
303 K | 27.78 | –
308 K | 23.66 | –
313 K | 20.37 | 20.49
318 K | 17.69 | –
323 K | 15.5 | –
328 K | 13.68 | –
333 K | 12.16 | 12.42
338 K | 10.87 | –
343 K | 9.784 | –
348 K | 8.848 | –
353 K | 8.041 | 8.036
358 K | 7.34 | –

CCCCCCCCCCn1cc[n+](C)c1.O=S(=O)([N-]S(=O)(=O)C(F)(F)F)C(F)(F)F
viscosity [mPa·s]
Details | Concentric cylinders viscometry | Falling or rolling sphere viscometry
278 K | 403.2 | –
283 K | 287.62 | 292.44
288 K | 210.53 | –
293 K | 157.52 | 159.41
298 K | 120.18 | –
303 K | 93.45 | –
308 K | 73.92 | –
313 K | 59.37 | 60.51
318 K | 48.36 | –
323 K | 39.91 | –
328 K | 33.32 | –
333 K | 28.12 | 29.3
338 K | 23.97 | –
343 K | 20.62 | –
348 K | 17.88 | –
353 K | 15.63 | 16.14
358 K | 13.75 | –
373 K | – | 10
393 K | – | 6.8

CCCCCCCCCCCCCCn1cc[n+](C)c1.O=S(=O)([N-]S(=O)(=O)C(F)(F)F)C(F)(F)F
Concentric cylinders viscometry
Details | viscosity [mPa·s]
313 K | 98.04
318 K | 78.06
323 K | 63.09
328 K | 51.68
333 K | 42.83
338 K | 35.87
343 K | 30.36
348 K | 25.93
353 K | 22.33
358 K | 19.38
363 K | 16.95

CCCCCCCCCCCCn1cc[n+](C)c1.O=S(=O)([N-]S(=O)(=O)C(F)(F)F)C(F)(F)F
Concentric cylinders viscometry
Details | viscosity [mPa·s]
283 K | 384.51
288 K | 277.46
293 K | 205
298 K | 154.33
303 K | 118.68
308 K | 93.71
313 K | 74.49
318 K | 60.08
323 K | 49.11
328 K | 40.64
333 K | 34.01
338 K | 28.76
343 K | 24.55
348 K | 21.14
353 K | 18.35
358 K | 16.05
363 K | 14.12

CCCCCCCCn1cc[n+](C)c1.O=S(=O)([N-]S(=O)(=O)C(F)(F)F)C(F)(F)F
Concentric cylinders viscometry
Details | viscosity [mPa·s]
278 K | 297.03
283 K | 214.79
288 K | 159.11
293 K | 120.46
298 K | 93.05
303 K | 73.2
308 K | 58.53
313 K | 47.5
318 K | 39.09
323 K | 32.56
328 K | 27.43
333 K | 23.35
338 K | 20.06
343 K | 17.38
348 K | 15.18
353 K | 13.35
358 K | 11.83
